Measurements from patent US20080014247A1, “METAL-CONTAINING FORMULATIONS AND METHODS OF USE” (Nucryst Pharmaceuticals, priority 2006, published 2008).

Columns and labels:
C. freundii = experiment: Minimal bactericidal concentration (MBC) assay; format: cell-based, Citrobacter freundii; settings: isolate NP410
Protocol: (§1) Minimal bactericidal concentration (MBC) assay—Overnight-grown MIC plates, prepared as described in Example 16, were evaluated to determine the MIC. Culture was then sampled from wells at and near the MIC using sterile inoculating loops, and transferred to fresh MHA plates to determine if viable bacteria remained. […] The MBC was determined as the well in the MIC plate which contained the lowest concentration of silver yielding no bacterial growth on the MHA plate.

Burkholderia dolosa = experiment: MIC assay (microdilution); format: cell-based
Staph. aureus = experiment: Minimal bactericidal concentration (MBC) assay; format: cell-based, Staphylococcus aureus
Protocol: as §1

B. multivorans = experiment: Minimal bactericidal concentration (MBC) assay; format: cell-based, Burkholderia multivorans
Protocol: as §1

Ser. marcescens = experiment: Minimal bactericidal concentration (MBC) assay; format: cell-based, Serratia marcescens
Protocol: as §1

Citrobacter freundii = experiment: MIC assay (microdilution); format: cell-based; settings: isolate NP410
Streptococcus pyogenes = experiment: MIC assay (microdilution); format: cell-based
K. pneumoniae = experiment: Minimal bactericidal concentration (MBC) assay; format: cell-based, Klebsiella pneumoniae
Protocol: as §1

[1] = test system: Mycobacterium tuberculosis H37Ra (ATCC 25177); experiment: microbe, parasite or virus in culture; format: cell-based
Staph epidermidis = experiment: Minimal bactericidal concentration (MBC) assay; format: cell-based, Staphylococcus epidermidis
Protocol: as §1

Prot. mirabilis = experiment: Minimal bactericidal concentration (MBC) assay; format: cell-based, Proteus mirabilis; settings: isolate NP405
Protocol: as §1

B dolosa = experiment: Minimal bactericidal concentration (MBC) assay; format: cell-based, Burkholderia dolosa
Protocol: as §1

Pseudomonas aeruginosa = experiment: MIC assay (microdilution); format: cell-based
E. coli = experiment: Minimal bactericidal concentration (MBC) assay; format: cell-based, Escherichia coli
Protocol: as §1

Serratia marcescens = experiment: MIC assay (microdilution); format: cell-based
Shigella flexneri = experiment: MIC assay (microdilution); format: cell-based; settings: ATCC 12022
Enterobacter cloacae = experiment: MIC assay (microdilution); format: cell-based
Staphylococcus aureus = experiment: MIC assay (microdilution); format: cell-based
[2] = test system: Staphylococcus epidermidis; experiment: MIC assay (microdilution); format: cell-based
Proteus mirabilis = experiment: MIC assay (microdilution); format: cell-based; settings: isolate NP405
Strep. pyogenes = experiment: Minimal bactericidal concentration (MBC) assay; format: cell-based, Streptococcus pyogenes
Protocol: as §1

Streptococcus pneumoniae = experiment: MIC assay (microdilution); format: cell-based; settings: lactate solutions
Ps. aeruginosa = experiment: Minimal bactericidal concentration (MBC) assay; format: cell-based, Pseudomonas aeruginosa
Protocol: as §1

Escherichia coli = experiment: MIC assay (microdilution); format: cell-based
Klebsiella pneumoniae = experiment: MIC assay (microdilution); format: cell-based
Burkholderia multivorans = experiment: MIC assay (microdilution); format: cell-based

SMILES: O=[N+]([O-])[O-].[Ag+] [AgNO3, silver nitrate]
- MBC (C. freundii): 3 parts silver per million
- MIC (Burkholderia dolosa; isolate A3): 2 parts silver per million
- MIC (Burkholderia dolosa; isolate A4): 2 parts silver per million
- MBC (Staph. aureus; ATCC 6538): 6 parts silver per million
- MBC (Staph. aureus; ATCC 700699): 6 parts silver per million
- MBC (Staph. aureus; isolate NP101): 11 parts silver per million
- MBC (Staph. aureus; isolate NP102): 6 parts silver per million
- MBC (Staph. aureus; isolate NP103): 6 parts silver per million
- MBC (B. multivorans; isolate B1): 3 parts silver per million
- MBC (B. multivorans; isolate B2): 3 parts silver per million
- MBC (B. multivorans; isolate B4): 3 parts silver per million
- MBC (Ser. marcescens; isolate NP402): 6 parts silver per million
- MBC (Ser. marcescens; isolate NP402, second entry): 6 parts silver per million
- MBC (Ser. marcescens; isolate NP408): 6 parts silver per million
- MBC (Ser. marcescens; isolate NP408, second entry): 11 parts silver per million
- MIC (Citrobacter freundii): 3 parts silver per million
- MIC (Streptococcus pyogenes; S. pyog (clin. 303), lactate solutions): 3 µg/mL
- MIC (Streptococcus pyogenes; S. pyog (clin. 304), lactate solutions): 5 µg/mL
- MIC (Streptococcus pyogenes; isolate NP303): 3 parts silver per million
- MIC (Streptococcus pyogenes; isolate NP304): 6 parts silver per million
- MIC (Streptococcus pyogenes; isolate NP306): 6 parts silver per million
- MBC (K. pneumoniae; isolate NP401): 3 parts silver per million
- MBC (K. pneumoniae; isolate NP403): 6 parts silver per million
- MBC (K. pneumoniae; isolate NP403, second entry): 3 parts silver per million
- MBC (K. pneumoniae; isolate NP406): 1 parts silver per million
- MIC [1]: 2.5 μg/ml silver
- MBC (Staph epidermidis; ATCC 12228): 3 parts silver per million
- MBC (Staph epidermidis; isolate NP136): 3 parts silver per million
- MBC (Prot. mirabilis): 13 parts silver per million
- MBC (B dolosa; isolate A3): 3 parts silver per million
- MBC (B dolosa; isolate A4): 2 parts silver per million
- MIC (Pseudomonas aeruginosa; ATCC 9027): 1 parts silver per million
- MIC (Pseudomonas aeruginosa; ATCC 27317): 2 parts silver per million
- MIC (Pseudomonas aeruginosa; P. aerug (ATCC), lactate solutions): 3 µg/mL
- MIC (Pseudomonas aeruginosa; P. aerug. (clin.), lactate solutions): 3 µg/mL
- MIC (Pseudomonas aeruginosa; isolate NP201): 1 parts silver per million
- MIC (Pseudomonas aeruginosa; isolate NP204): 1 parts silver per million
- MIC (Pseudomonas aeruginosa; isolate NP206): 1 parts silver per million
- MIC (Pseudomonas aeruginosa; isolate NP212, formulation type Lactate): 2 ppm
- MIC (Pseudomonas aeruginosa; isolate NP212, formulation type Water/Lecithin): 3 ppm
- MIC (Pseudomonas aeruginosa; isolate NP212, formulation type Water/PVA): 3 ppm
- MBC (E. coli; ATCC 8739): 0.4 parts silver per million
- MBC (E. coli; ATCC 43745): 0.4 parts silver per million
- MBC (E. coli; isolate NP412): 1 parts silver per million
- MIC (Serratia marcescens; aerobic +): 6 µg/mL
- MIC (Serratia marcescens; aerobic − (anaerobic)): 13 µg/mL
- MIC (Serratia marcescens; isolate NP402): 6 parts silver per million
- MIC (Serratia marcescens; isolate NP402, second entry): 6 parts silver per million
- MIC (Serratia marcescens; isolate NP408): 6 parts silver per million
- MIC (Serratia marcescens; isolate NP408, second entry): 11 parts silver per million
- MIC (Shigella flexneri; formulation type Lactate): 2 ppm
- MIC (Shigella flexneri; formulation type Water/Lecithin): 2 ppm
- MIC (Shigella flexneri; formulation type Water/PVA): 1 ppm
- MIC (Enterobacter cloacae; aerobic +): 13 µg/mL
- MIC (Enterobacter cloacae; aerobic − (anaerobic)): 25 µg/mL
- MIC (Staphylococcus aureus; ATCC 6538): 6 parts silver per million
- MIC (Staphylococcus aureus; ATCC 700699): 3 parts silver per million
- MIC (Staphylococcus aureus; S. aureus (ATCC), lactate solutions): 11 µg/mL
- MIC (Staphylococcus aureus; S. aureus (clin.), lactate solutions): 5 µg/mL
- MIC (Staphylococcus aureus; isolate NP101): 6 parts silver per million
- MIC (Staphylococcus aureus; isolate NP102): 6 parts silver per million
- MIC (Staphylococcus aureus; isolate NP103): 6 parts silver per million
- MIC ([2]; ATCC 12228): 3 parts silver per million
- MIC ([2]; S. epiderm (ATCC), lactate solutions): 3 µg/mL
- MIC ([2]; isolate NP136): 3 parts silver per million
- MIC (Proteus mirabilis): 6 parts silver per million
- MBC (Strep. pyogenes; isolate NP303): 10 parts silver per million
- MBC (Strep. pyogenes; isolate NP304): 21 parts silver per million
- MBC (Strep. pyogenes; isolate NP306): 21 parts silver per million
- MIC (Streptococcus pneumoniae; S. pneumo (clin 314)): 11 µg/mL
- MIC (Streptococcus pneumoniae; S. pneumo (clin 315)): 21 µg/mL
- MBC (Ps. aeruginosa; ATCC 27317): 3 parts silver per million
- MBC (Ps. aeruginosa; isolate NP201): 3 parts silver per million
- MBC (Ps. aeruginosa; isolate NP204): 3 parts silver per million
- MBC (Ps. aeruginosa; isolate NP206): 1 parts silver per million
- MIC (Escherichia coli; ATCC 8739): 0.4 parts silver per million
- MIC (Escherichia coli; ATCC 43745): 1 parts silver per million
- MIC (Escherichia coli; E. coli (ATCC), lactate solutions): 3 µg/mL
- MIC (Escherichia coli; isolate NP412): 1 parts silver per million
- MIC (Klebsiella pneumoniae; aerobic +): 3 µg/mL
- MIC (Klebsiella pneumoniae; aerobic − (anaerobic)): 3 µg/mL
- MIC (Klebsiella pneumoniae; isolate NP401): 3 parts silver per million
- MIC (Klebsiella pneumoniae; isolate NP403): 6 parts silver per million
- MIC (Klebsiella pneumoniae; isolate NP403, second entry): 6 parts silver per million
- MIC (Klebsiella pneumoniae; isolate NP406): 1 parts silver per million
- MIC (Burkholderia multivorans; isolate B1): 3 parts silver per million
- MIC (Burkholderia multivorans; isolate B2): 3 parts silver per million
- MIC (Burkholderia multivorans; isolate B4): 2 parts silver per million
